This series in a line: Agilent ZORBAX 300 SB-C18, 150 × 1 mm, 3.5 µm; A: water + 0.01% heptafluorobutyric acid; B: acetonitrile + 0.01% heptafluorobutyric acid; gradient (min/%B) 0/0 100/90. The following applies: stereoisomer not certain.
Regarding `Cn1c(=O)n(C)c2cc(N)ccc21`, the LC retention time worked out at 6.8 min.
`c1ccc(CCN(Cc2ccncc2)Cc2ccccn2)cc1`: the LC retention time came to 8.96 min.
As to `CC1(C)CC(NC(=O)c2ccccc2C(=O)NC2CC(C)(C)NC(C)(C)C2)CC(C)(C)N1`, the LC retention time stood at 7.61 min.
Take `CC(=O)Nc1ccc(C(=O)NCc2ccco2)cc1`: the LC retention time was found to be 8.96 min.
Take `CC1=NC(=Cc2ccccc2)C(=O)O1`: the LC retention time was determined as 9.16 min.
Next, `CCCCCC[N+](C)(C)Cc1ccccc1`: 10.7 min.
Take `Cc1c(C(=O)O)[nH]c(=O)[nH]c1=O`: the LC retention time amounted to 1.56 min.
Take `CC(=O)c1ccc2c(c1)N(CCCN(C)C)c1ccccc1S2`: the LC retention time is 11.1 min.
Next, `O=C(CCc1ccccc1)NN=Cc1ccccc1O`: 13.3 min.
The figure for `COC(=O)c1ccccc1-c1cc(C(=O)OC)c2ccccc2n1` is 15 min.
As to `Cc1ccc2c(c1)C1CN(C)CCC1N2C(=S)NC1CCCCC1` (stereo not drawn), the LC retention time was 12.2 min.
Regarding `CC(=O)c1[nH]c(C)c(C(=O)c2ccccc2)c1C`, the LC retention time was found to be 11.6 min.
As for `O=C(Nc1ccc(C(=O)c2ccccc2)cc1)c1ccc(-c2ccccc2)cc1`, the LC retention time is 17.8 min.
Next, `CN(C)CCCN1CCC(=O)C2CCCCC21` (stereo not drawn): 7.52 min.
`CC1(C)CC(=O)c2c(-c3ccccc3)nc3ccc4ccccc4c3c2C1`: the LC retention time was 17.1 min.
The figure for `O=C(O)CCC(=O)Nc1ccc(Cc2ccc(NC(=O)CCC(=O)O)cc2)cc1` is 9.35 min; for `c1ccc(Cn2c3ccccc3c3ccccc32)cc1` it is 18.8 min.
Next, `CC(=O)Nc1cc(=O)[nH]c(C)n1`: 5.68 min; `Nc1cccc(N)n1`: 6.11 min.
For `OC(CCN1CCCC1)(c1ccccc1)C1CCCCC1` (stereo not drawn), the LC retention time amounted to 11.5 min.
The figure for `OC12CC(Cc3cccnc31)c1ccccc12` (stereo not drawn) is 8.39 min; for `CCCCN(C)CCCC` it is 8.6 min.
The figure for `Cc1cnc(C)cn1` is 7.49 min.
As for `CC(=O)N1CCC(C2CCNCC2)CC1`, the LC retention time was determined as 7 min.
The figure for `NC1C(=O)Nc2ccccc21` (stereo not drawn) is 7.8 min; for `CC(C)(C)c1ccc(C(=O)Nc2ccc(N)cc2)cc1` it is 11.2 min; for `O=C(Nc1cccnc1)c1cnccn1` it is 7.28 min.
Next, `O=C(O)CCc1nn2c3ccccc3n(CC(=O)O)c2nc1=O`: 7.51 min.
In the case of `c1cnc(NC2=NCCN2)cn1`, the LC retention time amounted to 6.92 min.
Next, `COc1ccc2c(c1)CCC1C2CCC2(C)C(=O)C(=Cc3ccccc3)CC12` (stereo not drawn): 21.4 min; `O=c1[nH]c(-c2ccccc2)nc2ccccc12`: 11 min; `COc1ccc(C2NNc3nn(-c4ccccc4OC)nc32)cc1` (stereo not drawn): 13.6 min.
The figure for `c1ccc(Nc2ccccc2)cc1` is 15.4 min; for `CC(C)(C)c1ccc(C(=O)NCc2ccccc2)o1` it is 14.8 min.
The figure for `Cc1cc(=O)cc(C)n1C` is 6.83 min; for `Cc1ccccc1N1C(=O)c2ccc(C(=O)O)cc2C1=O` it is 12 min.
Regarding `CC(Nc1ccc2ccccc2c1)C(=O)NN=Cc1cccc2ccccc12` (stereo not drawn), the LC retention time was 16.7 min.
Take `S=C1NCN(C2CCCCC2)CN1`: the LC retention time amounted to 8.07 min.
On to `c1ccc2[nH]ncc2c1`, for which the LC retention time worked out at 9.07 min.
As for `CCN(CC)CCNc1c(N)c(=O)oc2ccccc12`, the LC retention time worked out at 8.37 min.
Turning to `CCCCCCCCN1C2=C(C(=O)CC(C)(C)C2)C(c2ccccc2)C2=C1CC(C)(C)CC2=O`, the LC retention time came to 20.9 min.
The figure for `NCCn1cnc2ccccc2c1=O` is 7.46 min; for `COC(=O)COC(=O)c1ccccc1NC(=O)c1ccccc1` it is 15.1 min.
On to `O=c1[nH]c2ccccc2c(=O)n1CCO`, for which the LC retention time stood at 7.39 min.
Next, `Cc1cc(C)nc(SCc2nc3ccccc3nc2C)n1`: 13.2 min; `C=CCOc1ccccc1OCC(O)CNC(C)C` (stereo not drawn): 9.94 min.
For the compound `Cc1ccc(N)cc1N`, the LC retention time was determined as 6.85 min.
In the case of `S=C(NC1CCCCC1)NC1CCCCC1`, the LC retention time turned out to be 14.9 min.
In the case of `Nc1ncnc2ccccc12`, the LC retention time is 6.84 min.
The figure for `C=CCC(N)(CC=C)C1=CC(CC(=C)C)NC(CC(=C)C)C1` (stereo not drawn) is 8.79 min; for `CC(=O)N1CCc2[nH]c3ccccc3c2C1` it is 10.2 min.
Next, `CC(N)=C1C(=O)C(=O)N(C)C1c1ccccc1` (stereo not drawn): 8.68 min; `CCCCNCC`: 7.1 min; `CCCCNCC(=O)Nc1ccc(NC(=O)CNCCCC)cc1`: 8.26 min.
Regarding `Nc1nc2ccccc2[nH]1`, the LC retention time amounted to 7.69 min.
The figure for `Cc1cc(C)nc(N=C(N)Nc2cccc3ccccc23)n1` is 10.5 min; for `CN(C)C(=N)N(C)C` it is 6.49 min; for `Cc1ccc2cccc(SC(c3ccccc3)c3ccccc3)c2n1` it is 17.5 min.
For the compound `Nc1cccc2c1C(=O)c1cccc(N)c1C2=O`, the LC retention time worked out at 12.6 min.
Turning to `Cc1ccncc1`, the LC retention time worked out at 6.26 min.
Next, `Cn1ccnc1`: 3.76 min; `Nc1cc[n+](Cc2ccccc2)cc1`: 8.46 min; `CNC1CCCCC1`: 7.45 min.
Next, `Nc1ccn(CC(O)CO)c(=O)n1` (stereo not drawn): 4.4 min.
Next, `CC(C)(C)c1ccc(C(=O)NN=Cc2cccnc2)cc1`: 11.2 min.
In the case of `O=C(C=Cc1ccccc1)c1ccc(O)cc1O`, the LC retention time turned out to be 14.3 min.
Next, `Cc1ccc(C(=O)NCCc2c(C)[nH]c3ccccc23)cc1`: 13.6 min; `Cc1ccccc1N1C(=O)NC(=O)C(=Cc2cccn2C)C1=O`: 10.9 min.
Next, `COC(=O)C1C2CC3c4[nH]c5cc(OC)ccc5c4CCN3CC2CC(OC(=O)c2cc(OC)c(OC)c(OC)c2)C1OC` (stereo not drawn): 12.4 min.
The figure for `CCOC(=O)c1ccc(NC(=O)CC(C)(C)C)cc1` is 14.8 min.
`O=c1cc(O)c2ccccc2[nH]1`: the LC retention time was found to be 8.44 min.
As to `c1ccc2c(Sc3nccc4ccccc34)nccc2c1`, the LC retention time is 14.4 min.
The figure for `C=CCNC1CCCCC1` is 7.93 min; for `CC(C)NC(=S)N1CCC(Cc2ccccc2)CC1` it is 16 min; for `O=C1NC(=O)C(c2ccccc2)(c2ccc(O)cc2)N1` (stereo not drawn) it is 9.15 min.
The figure for `COc1ccc(C=Cc2nc(=O)c3ccccc3o2)cc1` is 13.8 min; for `CC(=O)c1[nH]c2c(c1C)C(=O)CCC2` it is 8.48 min.
The figure for `Cc1cccc(Nc2cc(=O)[nH]c(=O)[nH]2)c1C` is 8.71 min.
For `Cc1nc2ccccc2nc1CSc1cccc2cccnc12`, the LC retention time worked out at 12.8 min.
The figure for `O=C(NC(Cc1ccccc1)C(=O)NCc1ccco1)c1ccccc1` (stereo not drawn) is 12.8 min; for `CC(=O)C1C(=O)C=C(c2ccco2)CC1c1ccco1` (stereo not drawn) it is 13.2 min; for `NC(=O)CC(NC(N)=O)C(=O)O` (stereo not drawn) it is 1.47 min.
As to `CCOc1cc(NC(C)=O)ccc1C(=O)NN=Cc1cccc(Oc2ccccc2)c1`, the LC retention time came out at 14.3 min.
Next, `CCOC(=O)c1c(N)n(C(C)=O)[nH]c1=O`: 6.93 min; `c1ccc2ncccc2c1`: 7.27 min; `CCCC[N+](CCCC)(CCCC)CCCC`: 13.2 min.
Next, `CCCCCCC1(C)OCOC1=CC[N+](C)(C)C` (stereo not drawn): 10.8 min.
The figure for `CN(C)c1ccc(C=NNC(=O)Cc2n[nH]c(=O)[nH]c2=O)cc1` is 8.47 min.
As to `CC(=O)c1c[nH]c2ccccc12`, the LC retention time came out at 9.25 min.
Turning to `CCC(C)N1CNc2c(c(=O)[nH]c(=O)n2Cc2ccccc2)C1` (stereo not drawn), the LC retention time stood at 8.19 min.
The figure for `CC1=NC(=O)NC(C2CC=CCC2)C1C(=O)OC(C)C` (stereo not drawn) is 12.3 min; for `O=C1c2ccccc2-c2nc3ccccc3nc21` it is 13 min; for `CCN(CC)C(=O)N1CCN(C)CC1` it is 7.39 min.
Next, `CN1CC(=O)N(c2cccc(N)c2)C1=O`: 6.98 min.
Next, `NCC1CCCCN1` (stereo not drawn): 6.88 min; `CCCCCCCCCCNCCCCCCCCCC`: 17.8 min; `CN1C(=O)CC(CN)c2ccccc21` (stereo not drawn): 7.58 min.
For `CC[N+](CC)(CC)CCOc1cccc(OCC[N+](CC)(CC)CC)c1OCC[N+](CC)(CC)CC`, the LC retention time came to 8.44 min.
Next, `Nc1nc(=O)n2c(n1)oc1ccccc12`: 7.8 min; `O=C(C=Cc1ccccc1)c1cc2ccccc2o1`: 16.7 min; `NC(=O)CCCCCCCCCC(Cc1ccccc1)C(=O)O` (stereo not drawn): 13.3 min.
For `Cc1ccc(N2CCN(C(=O)C(c3ccccc3)c3ccccc3)CC2)cc1C`, the LC retention time came out at 17.5 min.
Next, `Nc1ccc2c(c1)CCC2`: 8.35 min; `Cc1cccc2cc[nH]c12`: 12.6 min.
The figure for `CC1(c2ccccc2)OCOC1=CC[N+](C)(C)C` (stereo not drawn) is 9.45 min.
The figure for `Nc1ccc2cc3ccc(N)cc3nc2c1` is 9.09 min; for `CCCCNC(=O)NCCCC` it is 10.5 min; for `COC1N(c2ccccc2)N=C(c2ccccc2)N1c1ccccc1` (stereo not drawn) it is 16.8 min.

Values taken from the RepoRT retention time repository.
